From patent publication US10688082B2, “Aminopyrazine compounds with A2A antagonist properties” (Merck Sharp & Dohme Corp., priority 2015, dated 2020) come the findings set out here.

T1 sequence (P29274 whole entry): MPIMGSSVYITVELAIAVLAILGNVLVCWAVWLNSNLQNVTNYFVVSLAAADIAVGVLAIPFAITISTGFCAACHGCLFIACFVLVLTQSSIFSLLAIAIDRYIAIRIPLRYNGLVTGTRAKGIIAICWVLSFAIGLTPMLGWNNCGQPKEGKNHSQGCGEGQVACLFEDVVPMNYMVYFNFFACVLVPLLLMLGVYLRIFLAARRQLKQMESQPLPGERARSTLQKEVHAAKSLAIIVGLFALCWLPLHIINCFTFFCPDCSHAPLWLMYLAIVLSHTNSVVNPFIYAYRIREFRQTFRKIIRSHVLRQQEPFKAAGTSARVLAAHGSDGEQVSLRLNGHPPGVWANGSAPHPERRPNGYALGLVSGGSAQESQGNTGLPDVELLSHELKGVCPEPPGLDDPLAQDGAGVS

The first assay concerns the target T1, human A2a receptor (Homo sapiens, UniProt P29274).
T1 construct: purchased Perkin-Elmer RBHA2AM400UA; host or cells: HEK293 cells (membranes)
Kind of assay: Competition binding assay using Scintillation Proximity technology (A2a activity). The note with it: membranes from HEK293 cells expressing the human A2a receptor; 0.5 nM tritiated ligand; Cheng-Prusoff. The protocol:
Binding affinities of compounds of the invention for the human A2a receptor were determined in a competition binding assay using Scintillation Proximity technology. Thus, […] from HEK293 cells expressing the human A2a receptor were incubated with a compound of the invention at concentrations ranging from 3000 nM to 0.15 nM in a reaction mixture containing also 0.5 nM of a tritiated form of 5-amino-7-[2-phenethyl]-2-(furan-2-yl)-7H-pyrazolo[4,3-e][1,2,4]triazolo[1,5-c]pyrimidine (the tritiated compound) and 100 μg of wheat germ agglutin-coated yttrium silicate SPA beads for one hour at room temperature with agitation. The beads were then allowed to settle to the bottom of the wells for 1 hr, after which the membrane-associated radioactivity was determined by scintillation counting in a TopCount microplate reader. Ki values were determined using the Cheng-Prusoff equation.
HEK293 cells expressing the human, rat, dog or monkey adenosine 2a receptor (Purchased from Perkin-Elmer # RBHA2AM400UA).
The Tritiated compound was prepared according to published methods.
Wheat germ agglutinin-coated yttrium silicate SPA beads (GE Healthcare # RPNQ0023). Dilute to 25 mg/ml in assay buffer.
Assay Buffer was prepared using Dulbecco's calcium and magnesium free phosphate buffered saline+10 mM MgCl2
Adenosine deaminase from calf intestine, 10 mg/2 ml (Roche #10 102 105 001).
A2a antagonist standard (9-chloro-1-(2-furanyl)-[1,2,4]triazolo1,5-c]quinazolin-5-amine from Tocris Bioscience)
Make eight 1:3 serial dilutions in 100% DMSO from a 3 mM compound stock
Transfer 50 nl of compound into a 384-well OptiPlate (Perkin Elmer).
Typically, final concentrations of compound used in the assay ranged from 3000 nM to 0.152 nM.
Dilute a solution of the Tritiated compound to 1.25 nM in assay buffer. This is a 2.5× solution. The final concentration in the assay is 0.5 nM. Calculate the concentration by counting two 5 μl aliquots.
Use 0.25 ug of membrane/well. Dilute membranes to 9.7 μg/ml in assay buffer. Treat with 20 ug/ml adenosine deaminase (ADA) for 15 minutes at room temperature to degrade endogenous adenosine.
Use 100 μg/well wheat germ agglutinin-coated yttrium silicate SPA beads.
Mix ADA-treated membranes and SPA beads together for 30 min prior to assay.
To the Perkin-Elmer Optiplate-384 containing the compound titration add 20 μl of 2.5× solution of the Tritiated compound and 30 μl of the membrane-bead mixture. Incubate for one hour at room temperature with agitation.
Include total binding (assay buffer+1% DMSO) and non-specific binding (CGS15943, 1 μM) wells.
Allow the beads to settle for one hour.
A curve fitting program (i.e., Prism, Activity Base, Chemcart) is used to determine the EC50. The Ki value is calculated using the Cheng-Prusoff equation. K i=EC50/(1+(radioligand concentration/Kd))
By Ki is commonly meant a dissociation constant, usually derived from enzyme kinetics or from competition with a known ligand. `COc1cccc2c1nc(N)n1nc(-c3cnco3)cc21` [Ex-2, 7-methoxy-2-(oxazol-5-yl)pyrazolo[1,5-c]quinazolin-5-amine] showed an inhibition constant Ki of 20 nM.
Same read-out and setting: with `COCCOc1ccc(N2CCN(CCOc3cccc4c3nc(N)n3nc(-c5ccco5)cc43)CC2)cc1` [Ex-3, 2-(furan-2-yl)-7-(2-(4-(4-(2-methoxyethoxy)phenyl)piperazin-1-yl)ethoxy)pyrazolo[1,5-c]quinazolin-5-amine] the figure was 677 nM.
For the compound `COc1cccc2c1nc(N)n1nc(Cc3ccc(F)cc3)cc21` [Ex-5, 2-(4-fluorobenzyl)-7-methoxypyrazolo[1,5-c]quinazolin-5-amine], the affinity corresponds to a Ki of 12 nM.
With `COc1cccc2c1nc(N)n1nc(Cc3ccc(F)cc3F)cc21` [Ex-6, 2-(2,4-difluorobenzyl)-7-methoxypyrazolo[1,5-c]quinazolin-5-amine], the Ki was determined as 10 nM.
Still for that read-out and setting: in the case of `COc1cccc2c1nc(N)n1nc(Cc3cccc4ccccc34)cc21` [Ex-7, 7-methoxy-2-(naphthalen-1-ylmethyl)pyrazolo[1,5-c]quinazolin-5-amine] it was 16 nM; in that of `COc1cccc2c1nc(N)n1nc(Cc3ccc(N4CCCCC4)cc3)cc21` [Ex-8, 7-methoxy-2-(4-(piperidin-1-yl)benzyl)pyrazolo[1,5-c]quinazolin-5-amine], 136 nM.
As for `COc1cccc2c1nc(N)n1nc(Cc3cccc4cccnc34)cc21` [Ex-9, 7-methoxy-2-(quinolin-8-ylmethyl)pyrazolo[1,5-c]quinazolin-5-amine], the inhibition constant (Ki) is 3 nM.
On the same count and under the same terms, with `COc1cccc2c1nc(N)n1nc(Cc3cncnc3)cc21` [Ex-10, 7-methoxy-2-(pyrimidin-5-ylmethyl)pyrazolo[1,5-c]quinazolin-5-amine] the figure was 36 nM; with `COc1cccc2c1nc(N)n1nc(Cc3ccc(N(C)C)cc3)cc21` [Ex-11, 2-(4-(dimethylamino)benzyl)-7-methoxypyrazolo[1,5-c]quinazolin-5-amine], 61 nM.
Compound `COc1cccc2c1nc(N)n1nc(Cc3ccc(N4CCN(C)CC4)cc3)cc21` [Ex-12, 7-methoxy-2-(4-(4-methylpiperazin-1-yl)benzyl)pyrazolo[1,5-c]quinazolin-5-amine] registered a Ki of 316 nM.
`COc1cccc2c1nc(N)n1nc(Cc3csc(N4CCN(C)CC4)n3)cc21` [Ex-13, 7-methoxy-2-((2-(4-methylpiperazin-1-yl)thiazol-4-yl)methyl)pyrazolo[1,5-c]quinazolin-5-amine] came in with an inhibition constant Ki of 373 nM.
`COc1cccc2c1nc(N)n1nc(Cc3ccnc4ccccc34)cc21` [Ex-14, 7-methoxy-2-(quinolin-4-ylmethyl)pyrazolo[1,5-c]quinazolin-5-amine] gave a Ki of 2 nM.
For `COc1cccc2c1nc(N)n1nc(Cc3cccc4ncccc34)cc21` [Ex-15, 7-methoxy-2-(quinolin-5-ylmethyl)pyrazolo[1,5-c]quinazolin-5-amine], the inhibition constant Ki is 85 nM.
Compound `COc1cccc2c1nc(N)n1nc(Cc3ccc4[nH]ncc4c3)cc21` [Ex-16, 2-((1H-indazol-5-yl)methyl)-7-methoxypyrazolo[1,5-c]quinazolin-5-amine] showed a Ki of 131 nM.
The same measure, in the same setting: in the case of `COc1cccc2c1nc(N)n1nc(Cc3ccccc3C(F)(F)F)cc21` [Ex-17, 7-methoxy-2-(2-(trifluoromethyl)benzyl)pyrazolo[1,5-c]quinazolin-5-amine] it was 17 nM; in that of `COc1cccc2c1nc(N)n1nc(Cc3ccccc3N3CCOCC3)cc21` [Ex-18, 7-methoxy-2-(2-morpholinobenzyl)pyrazolo[1,5-c]quinazolin-5-amine], 3 nM.
`COc1cccc2c1nc(N)n1nc(Cc3ccccc3N3CCNCC3)cc21` [Ex-19, 7-methoxy-2-(2-(piperazin-1-yl)benzyl)pyrazolo[1,5-c]quinazolin-5-amine]: the affinity corresponds to a Ki of 67 nM.

The assay is the same for the next values; noted with them: same protocol.
`COc1cccc2c1nc(N)n1nc(Cc3ccccc3)cc21` [Ex-4, 2-benzyl-7-methoxypyrazolo[1,5-c]quinazolin-5-amine] returned an inhibition constant Ki of 9 nM.
